Read-outs that look alike come from different tables or passages of the source.
How the values were obtained:
Assay type in all cases: biochemical
CDK2/CCNE1 = CDK2/CCNE1 (Homo sapiens, UniProt P24941); test: CDK2 homogeneous time-resolved fluorescence (HTRF) kinase assay; settings: CDK2/CCNE
In short: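 3 nM CDK2/CCNE1 was preincubated with compound for 20 min at 23 °C in HEPES buffer (pH not stated), then reacted 60 min with 1 mM ATP and 50 nM ULight-4E-BP1 (Thr37/46) peptide. After EDTA stop, Eu-anti-phospho-4E-BP1 antibody (2 nM) was added for 60 min and TR-FRET read at 665 nm.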

CDK4/CCND3 = CDK4/CCND3 (Homo sapiens, UniProt P11802); test: CDK4 homogeneous time-resolved fluorescence (HTRF) kinase assay; settings: CDK4/CCND
CDK4/CCND3, sequence (P11802 whole entry): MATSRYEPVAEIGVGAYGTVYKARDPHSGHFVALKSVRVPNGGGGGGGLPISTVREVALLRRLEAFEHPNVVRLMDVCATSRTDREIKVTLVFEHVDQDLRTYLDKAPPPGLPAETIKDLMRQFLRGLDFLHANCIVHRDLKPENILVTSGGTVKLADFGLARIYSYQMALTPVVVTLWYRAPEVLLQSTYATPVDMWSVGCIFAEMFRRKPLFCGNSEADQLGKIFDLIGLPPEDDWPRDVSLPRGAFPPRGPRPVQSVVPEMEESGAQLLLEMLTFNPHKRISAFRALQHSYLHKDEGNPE
CDK4/CCND3, sequence (P30281 whole entry partner): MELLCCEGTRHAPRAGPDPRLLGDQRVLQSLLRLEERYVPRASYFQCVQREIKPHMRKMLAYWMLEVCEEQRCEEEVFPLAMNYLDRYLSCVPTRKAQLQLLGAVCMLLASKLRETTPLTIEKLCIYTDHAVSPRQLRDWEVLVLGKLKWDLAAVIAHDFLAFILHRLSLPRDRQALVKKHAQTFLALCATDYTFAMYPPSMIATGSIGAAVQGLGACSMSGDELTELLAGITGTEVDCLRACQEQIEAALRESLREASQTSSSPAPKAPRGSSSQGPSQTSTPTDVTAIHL
In short: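 Steps: compound plus 1.5 nM CDK4/CCND3, 20 min, 23 °C; add 1 mM ATP and 50 nM ULight-4E-BP1 (Thr37/46) peptide, 60 min; stop with 10 mM EDTA; add 2 nM Eu anti-phospho antibody, 60 min; read 665 nm. IC50 from 11-point half-log series starting 10 μM.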

CDK1/CCNB1 = CDK1/CCNB1 (Homo sapiens, UniProt P06493); test: CDK1 homogeneous time-resolved fluorescence (HTRF) kinase assay; settings: CDK1/CCNB
CDK1/CCNB1, sequence (P06493 whole entry): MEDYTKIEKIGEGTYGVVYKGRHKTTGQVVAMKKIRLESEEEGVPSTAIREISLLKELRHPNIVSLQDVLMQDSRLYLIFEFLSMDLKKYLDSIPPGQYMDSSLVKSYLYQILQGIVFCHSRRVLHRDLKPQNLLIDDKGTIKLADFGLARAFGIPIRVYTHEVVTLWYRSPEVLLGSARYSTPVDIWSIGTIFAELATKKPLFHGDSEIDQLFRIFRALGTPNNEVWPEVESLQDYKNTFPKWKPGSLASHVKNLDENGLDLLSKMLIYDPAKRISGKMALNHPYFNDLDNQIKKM
CDK1/CCNB1, sequence (P14635 whole entry partner): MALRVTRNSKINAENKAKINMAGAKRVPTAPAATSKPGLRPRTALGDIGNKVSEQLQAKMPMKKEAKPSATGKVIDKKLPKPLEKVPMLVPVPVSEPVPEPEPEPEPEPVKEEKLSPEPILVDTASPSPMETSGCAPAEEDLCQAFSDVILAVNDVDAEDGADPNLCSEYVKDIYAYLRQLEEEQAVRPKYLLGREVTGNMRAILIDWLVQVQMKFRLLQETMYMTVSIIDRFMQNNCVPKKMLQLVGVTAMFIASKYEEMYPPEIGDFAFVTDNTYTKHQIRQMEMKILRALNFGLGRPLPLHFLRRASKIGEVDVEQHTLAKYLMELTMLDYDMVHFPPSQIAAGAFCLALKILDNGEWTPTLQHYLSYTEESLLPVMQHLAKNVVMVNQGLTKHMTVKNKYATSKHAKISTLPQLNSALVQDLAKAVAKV
In short: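 Kinase activity is measured as Lance signal (665 nm, or 665/615 nm ratio) from europium-labelled anti-phospho-Thr37/46 antibody binding ULight-4E-BP1 peptide. Reactions contain 0.5 nM enzyme, 1 mM ATP, 1% DMSO and run 60 min at 23 °C before EDTA quench.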

CDK6/CCND1 = CDK6/CCND1 (Homo sapiens, UniProt Q00534); test: CDK6 homogeneous time-resolved fluorescence (HTRF) kinase assay; settings: CDK6/CCND
CDK6/CCND1, sequence (Q00534 whole entry): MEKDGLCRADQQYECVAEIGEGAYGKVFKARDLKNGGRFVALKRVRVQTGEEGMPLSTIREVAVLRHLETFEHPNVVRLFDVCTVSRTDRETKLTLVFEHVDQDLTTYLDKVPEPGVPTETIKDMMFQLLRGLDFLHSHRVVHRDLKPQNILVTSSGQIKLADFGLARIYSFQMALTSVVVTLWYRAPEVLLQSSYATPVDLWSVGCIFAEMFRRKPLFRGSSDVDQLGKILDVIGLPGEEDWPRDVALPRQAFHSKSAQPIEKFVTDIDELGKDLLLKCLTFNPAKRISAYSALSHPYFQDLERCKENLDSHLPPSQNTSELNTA
CDK6/CCND1, sequence (P24385 whole entry partner): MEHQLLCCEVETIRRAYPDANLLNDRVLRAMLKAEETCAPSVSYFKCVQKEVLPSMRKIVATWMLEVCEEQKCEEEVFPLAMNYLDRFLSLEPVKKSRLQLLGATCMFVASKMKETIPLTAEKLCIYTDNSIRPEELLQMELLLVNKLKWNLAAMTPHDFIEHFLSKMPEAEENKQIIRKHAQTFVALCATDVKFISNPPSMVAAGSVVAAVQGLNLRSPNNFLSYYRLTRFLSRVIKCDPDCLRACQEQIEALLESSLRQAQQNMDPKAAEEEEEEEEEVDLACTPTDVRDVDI
In short: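 Enzyme pre-incubated 20 min at 23 °C with compound, then reacted 60 min at 23 °C with 1 mM ATP and 50 nM ULight-4E-BP1 (Thr37/46) peptide; 1 nM enzyme, 1% DMSO. EDTA-stopped, Eu-anti-phospho antibody TR-FRET read (665 nm or 665/615 ratio); 11-point half-log titration from 10 μM gave IC50.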

[1] = <25 nM, read-out: CDK2/CCNE IC50 <25 nM
[2] = 25-250 nM marked x, read-out: CDK4/CCND IC50 25-250 nM
[3] = >250 nM marked x, read-out: CDK1/CCNB IC50 >250 nM
[4] = 25-250 nM marked x, read-out: CDK6/CCND IC50 25-250 nM
[5] = x = IC50 25-250 nM, read-out: CDK2/CCNE IC50 (25-250 nM)
[6] = x = IC50 >250 nM, read-out: CDK4/CCND IC50 (>250 nM column)
[7] = x = IC50 >250 nM, read-out: CDK1/CCNB IC50 (>250 nM column)
[8] = x = IC50 >250 nM, read-out: CDK6/CCND IC50 (>250 nM column)
[9] = 25-250 nM, read-out: CDK2/CCNE IC50, 25-250 nM
[10] = >250 nM, read-out: CDK4/CCND IC50, >250 nM
[11] = >250 nM, read-out: CDK1/CCNB IC50 >250 nM
[12] = >250 nM, 1 mM ATP, read-out: CDK6/CCND IC50, >250 nM
[13] = x = IC50 <25 nM, read-out: CDK2/CCNE IC50 (<25 nM)
[14] = x = IC50 25-250 nM, read-out: CDK4/CCND IC50 (25-250 nM)
[15] = >250 nM marked x, read-out: CDK4/CCND IC50 >250 nM
[16] = >250 nM marked x, read-out: CDK6/CCND IC50 >250 nM
[17] = <25 nM, read-out: CDK2/CCNE IC50, <25 nM

| SMILES | IC50 (CDK4/CCND3; [6]) | IC50 (CDK1/CCNB1; [7]) | IC50 (CDK6/CCND1; [8]) | IC50 (CDK4/CCND3; [10]) | IC50 (CDK1/CCNB1; [11]) | IC50 (CDK6/CCND1; [12]) | also measured |
| --- | --- | --- | --- | --- | --- | --- | --- |
| CS(=O)(=O)N1CCC(Nc2cc3c(-c4ccc5c(c4)CC(=O)N5)nccc3cn2)CC1 [Ex 91, 5-(7-((1-(methylsulfonyl)piperidin-4-yl)amino)-2,6-naphthyridin-1-yl)indolin-2-one] | – | – | – | – | – | – | IC50 (CDK2/CCNE1; [1]): < 0.025 µM; IC50 (CDK4/CCND3; [2]): 0.025 to 0.25 µM; IC50 (CDK1/CCNB1; [3]): > 0.25 µM; IC50 (CDK6/CCND1; [4]): 0.025 to 0.25 µM |
| CS(=O)(=O)c1ccc(Nc2cc3c(C#Cc4ccc(NC(=O)C5CC5)cc4)nccc3cn2)cc1 [Example 487, N-(4-((7-((4-(methylsulfonyl)phenyl)amino)-2,6-naphthyridin-1-yl)ethynyl)phenyl)cyclopropanecarboxamide] | > 0.25 µM | > 0.25 µM | > 0.25 µM | – | – | – | IC50 (CDK2/CCNE1; [5]): 0.025 to 0.25 µM |
| CS(=O)(=O)c1ccc(Nc2cc3c(N4CC[C@H](c5ccc(C#N)cc5)[C@H](O)C4)nccc3cn2)cc1 (relative stereo) [Example 606, 4-(3-hydroxy-1-(7-((4-(methylsulfonyl)phenyl)amino)-2,6-naphthyridin-1-yl)piperidin-4-yl)benzonitrile] | > 0.25 µM | > 0.25 µM | > 0.25 µM | – | – | – | IC50 (CDK2/CCNE1; [5]): 0.025 to 0.25 µM |
| Cc1c(-c2nccc3cnc(Nc4ccc(NS(=O)(=O)c5ccc(N6CCOCC6)cc5)cc4)cc23)ccc2c1cnn2CC(C)(C)O [Ex 786, N-(4-((5-(1-(2-hydroxy-2-methylpropyl)-4-methyl-1H-indazol-5-yl)-2,6-naphthyridin-3-yl)amino)phenyl)-4-morpholinobenzenesulfonamide] | – | – | – | > 0.25 µM | > 0.25 µM | > 0.25 µM | IC50 (CDK2/CCNE1; [9]): 0.025 to 0.25 µM |
| Cc1c(-c2nccc3cnc(Nc4ccc(S(=N)(=O)Nc5ccccc5)cc4)cc23)ccc2c1cnn2CC(O)(C(F)(F)F)C(F)(F)F (single isomer, unassigned) [Ex 685, 4-((5-(4-methyl-1-(3,3,3-trifluoro-2-hydroxy-2-(trifluoromethyl)propyl)-1H-indazol-5-yl)-2,6-naphthyridin-3-yl)amino)-N-phenylbenzenesulfonimidamide] | – | – | – | > 0.25 µM | > 0.25 µM | > 0.25 µM | IC50 (CDK2/CCNE1; [9]): 0.025 to 0.25 µM |
| CS(=O)(=O)c1ccc(Nc2cc3c(C#Cc4ccc5cn[nH]c5c4)nccc3cn2)cc1 [Ex 638, 5-((1H-indazol-6-yl)ethynyl)-N-(4-(methylsulfonyl)phenyl)-2,6-naphthyridin-3-amine] | – | > 0.25 µM | > 0.25 µM | – | – | – | IC50 (CDK2/CCNE1; [13]): < 0.025 µM; IC50 (CDK4/CCND3; [14]): 0.025 to 0.25 µM |
| CS(=O)(=O)N1CCC(Nc2cc3c(N4CC(C#N)C4)nccc3cn2)CC1 [Ex 43, 1-(7-((1-(methylsulfonyl)piperidin-4-yl)amino)-2,6-naphthyridin-1-yl)azetidine-3-carbonitrile] | – | – | – | – | – | – | IC50 (CDK2/CCNE1; [1]): < 0.025 µM; IC50 (CDK4/CCND3; [2]): 0.025 to 0.25 µM; IC50 (CDK1/CCNB1; [3]): > 0.25 µM; IC50 (CDK6/CCND1; [4]): 0.025 to 0.25 µM |
| CS(=O)(=O)c1ccc(Nc2cc3c(C#Cc4n[nH]c5cnccc45)nccc3cn2)cc1 [Example 496, 5-((1H-pyrazolo[3,4-c]pyridin-3-yl)ethynyl)-N-(4-(methylsulfonyl)phenyl)-2,6-naphthyridin-3-amine] | > 0.25 µM | > 0.25 µM | > 0.25 µM | – | – | – | IC50 (CDK2/CCNE1; [13]): < 0.025 µM |
| CS(=O)(=O)c1ccc(Nc2cc3c(C#Cc4ccc5nc[nH]c5c4)nccc3cn2)cc1 [Ex 648, 5-((1H-benzo[d]imidazol-6-yl)ethynyl)-N-(4-(methylsulfonyl)phenyl)-2,6-naphthyridin-3-amine] | > 0.25 µM | > 0.25 µM | > 0.25 µM | – | – | – | IC50 (CDK2/CCNE1; [13]): < 0.025 µM |
| CC#Cc1nccc2cnc(Nc3ccc(S(=O)(=O)Nc4nc(OC)cc(OC)n4)cc3)cc12 [Ex 890, N-(4,6-dimethoxypyrimidin-2-yl)-4-((5-(prop-1-yn-1-yl)-2,6-naphthyridin-3-yl)amino)benzenesulfonamide] | – | – | – | > 0.25 µM | > 0.25 µM | > 0.25 µM | IC50 (CDK2/CCNE1; [9]): 0.025 to 0.25 µM |
| CS(=O)(=O)c1ccc(Nc2cc3c(ccnc3[C@H]3CC[C@H](C(=O)NC4CCOCC4)CC3)cn2)cc1 [Ex 226, (1r,4r)-4-(7-((4-(methylsulfonyl)phenyl)amino)-2,6-naphthyridin-1-yl)-N-(tetrahydro-2H-pyran-4-yl)cyclohexane-1-carboxamide] | – | – | – | – | – | – | IC50 (CDK2/CCNE1; >250 nM marked x, read-out: CDK2/CCNE IC50 >250 nM): > 0.25 µM; IC50 (CDK4/CCND3; [15]): > 0.25 µM; IC50 (CDK1/CCNB1; [3]): > 0.25 µM; IC50 (CDK6/CCND1; [16]): > 0.25 µM |
| COc1cc(C#Cc2nccc3cnc(Nc4ccc(S(C)(=O)=O)cc4)cc23)c(F)cn1 [Ex 586, 5-((5-fluoro-2-methoxypyridin-4-yl)ethynyl)-N-(4-(methylsulfonyl)phenyl)-2,6-naphthyridin-3-amine] | > 0.25 µM | > 0.25 µM | > 0.25 µM | – | – | – | IC50 (CDK2/CCNE1; [5]): 0.025 to 0.25 µM |
| CSc1ccc(C#Cc2nccc3cnc(Nc4ccc(S(C)(=O)=O)cc4)cc23)cc1 [Ex 858, N-(4-(methylsulfonyl)phenyl)-5-((4-(methylthio)phenyl)ethynyl)-2,6-naphthyridin-3-amine] | – | – | – | > 0.25 µM | > 0.25 µM | > 0.25 µM | IC50 (CDK2/CCNE1; [9]): 0.025 to 0.25 µM |
| CCNS(=O)(=O)c1ccc(Nc2cc3c(-c4ccc5c(cnn5CC(C)(C)O)c4C)nccc3cn2)cc1 [Ex 795, N-ethyl-4-((5-(1-(2-hydroxy-2-methylpropyl)-4-methyl-1H-indazol-5-yl)-2,6-naphthyridin-3-yl)amino)benzenesulfonamide] | – | – | – | – | > 0.25 µM | – | IC50 (CDK2/CCNE1; [17]): < 0.025 µM; IC50 (CDK4/CCND3; 25-250 nM, read-out: CDK4/CCND IC50, 25-250 nM): 0.025 to 0.25 µM; IC50 (CDK6/CCND1; 25-250 nM, 1 mM ATP, read-out: CDK6/CCND IC50, 25-250 nM): 0.025 to 0.25 µM |
| Nc1ncccc1C#Cc1nccc2cnc(Nc3ccc(S(=O)(=O)C4CC4)cc3)cc12 [Ex 399, 5-((2-aminopyridin-3-yl)ethynyl)-N-(4-(cyclopropylsulfonyl)phenyl)-2,6-naphthyridin-3-amine] | > 0.25 µM | > 0.25 µM | > 0.25 µM | – | – | – | IC50 (CDK2/CCNE1; [13]): < 0.025 µM |
| Cc1c(-c2nccc3cnc(Nc4ccc(NS(=O)(=O)c5cccs5)cc4)cc23)ccc2c1cnn2CC(C)(C)O [Ex 834, N-(4-((5-(1-(2-hydroxy-2-methylpropyl)-4-methyl-1H-indazol-5-yl)-2,6-naphthyridin-3-yl)amino)phenyl)thiophene-2-sulfonamide] | – | – | – | > 0.25 µM | > 0.25 µM | > 0.25 µM | IC50 (CDK2/CCNE1; [17]): < 0.025 µM |
| CS(=O)(=O)c1ccc(Nc2cc3c(C#Cc4ccc(=O)[nH]c4)nccc3cn2)cc1 [Ex 667, 5-((7-((4-(methylsulfonyl)phenyl)amino)-2,6-naphthyridin-1-yl)ethynyl)pyridin-2(1H)-one] | – | – | > 0.25 µM | – | – | – | IC50 (CDK2/CCNE1; [13]): < 0.025 µM; IC50 (CDK4/CCND3; [14]): 0.025 to 0.25 µM; IC50 (CDK1/CCNB1; x = IC50 25-250 nM, read-out: CDK1/CCNB IC50 (25-250 nM)): 0.025 to 0.25 µM |
| C[C@@H]1CN(C)CCN1c1cc(Nc2cc3c(C#Cc4ccc(=O)[nH]n4)nccc3cn2)cnc1O [Ex 840, (R)-6-((7-((5-(2,4-dimethylpiperazin-1-yl)-6-hydroxypyridin-3-yl)amino)-2,6-naphthyridin-1-yl)ethynyl)pyridazin-3(2H)-one] | – | – | – | > 0.25 µM | > 0.25 µM | > 0.25 µM | IC50 (CDK2/CCNE1; >250 nM, read-out: CDK2/CCNE IC50, >250 nM): > 0.25 µM |
| O=C1Nc2cc(C#Cc3nccc4cnc(Nc5ccc(S(=O)(=O)CC(F)(F)F)cc5)cc34)ccc2C12CC2 [Ex 282, 6'-((7-((4-((2,2,2-trifluoroethyl)sulfonyl)phenyl)amino)-2,6-naphthyridin-1-yl)ethynyl)spiro[cyclopropane-1,3'-indolin]-2'-one] | – | – | – | – | – | – | IC50 (CDK2/CCNE1; [1]): < 0.025 µM; IC50 (CDK4/CCND3; [15]): > 0.25 µM; IC50 (CDK1/CCNB1; [3]): > 0.25 µM; IC50 (CDK6/CCND1; [16]): > 0.25 µM |
